What all share (type): cell-based
One test deals with various tumor cells. As to the kind of experiment: MTT cell viability assay, statements over all cell lines. The conditions noted are these: for anti cancer activity, in words: summary of table 9. Here is the method: (§1) Cell proliferation of A549 cell line (lung cancer), CT26 cell line (colon cancer), DU145 cell line (prostate cancer), HepG2 cell line (liver cancer), MDCK cell line (kidney from canine), PC3 cell line (prostate cancer), MDA-MB-231 cell line (breast cancer) and MCF-7 cell line (breast cancer) was assessed by MTT cell viability assay.
(§2) Above cell lines were cultured in determined medium for 24 hours. Proliferative cells were washed with PBS solution, treated with trypsin-EDTA (1×), centrifuged at 1,200 rpm for 5 min, precipitated the cells and discarded supernatant. The cells were resuspended with 10 ml of fresh medium, and then loaded to 96-well plate. While the assay initiated, 0.01˜200 μg/ml of Antrodia camphorata extract was added in each well, and the plate was incubated for 48 hours, at 37° C., 5% CO2. Each wall was added with 2.5 mg/ml MTT reagent in the dark. After 4 hours of reaction, 100 μl lysis buffer were added to each wall to terminate the reaction. […] The experiment data was represented by means±SD. All data was statistically analyzed by paired-t test, and a P-value less than 0.05 was considered significant.
The symbols used in tables respectively represent: 0˜25% cell viability: +/−; 25˜50% cell viability: +; 50˜75% cell viability: ++, 75˜100% cell viability: +++, >100% cell viability: ++++. […] In this experiment, when the drug concentration was diluted to […], DMSO concentration was 0.5%.
Accordingly, above extracts can be used for treating cancers, such as lung cancer, colon cancer, prostate cancer, liver cancer and breast cancer, and the effective compounds contained in those extracts also can be purified.
The half maximal inhibitory concentration (IC50) is a measure of the effectiveness of a compound in inhibiting biological or biochemical function. This quantitative measure indicates how much of a particular drug or other substance (inhibitor) is needed to inhibit a given biological process (e.g. cell apoptosis-inducing activity of a compound) by half. […]
(In general: Formazan colour is commonly taken as a measure of viable cells.)

In test [1] the test system is A549 cell line (lung cancer). As to the kind of experiment: MTT cell viability assay, A549. The settings on record: Homo sapiens, 48 hours, read-out: half maximal inhibitory concentration (IC50), A549. The method, then: as §1, §2
The test system of test [2] is CT26 cell line (colon cancer). As to the kind of experiment: MTT cell viability assay, CT26. The conditions noted are these: Mus musculus, 48 hours, read-out: half maximal inhibitory concentration (IC50), CT26. The method, then: as §1, §2
The test system of test [3] is DU145 cell line (prostate cancer). Kind of test: MTT cell viability assay, DU145. The settings on record: Homo sapiens; DU-145, MTT, 48 hours; read-out: half maximal inhibitory concentration (IC50), DU-145. The method, then:
as §1, §2

For test [4], the system named is HepG2 cell line (liver cancer). As to the kind of experiment: MTT cell viability assay, HepG2. The settings on record: Homo sapiens, 48 hours, read-out: half maximal inhibitory concentration (IC50), HepG2. The method, then:
as §1, §2

Test [5] relates to MDCK cell line (kidney from canine). Kind of test: MTT cell viability assay, MDCK. The conditions noted are these: Canis lupus familiaris, 48 hours, read-out: half maximal inhibitory concentration (IC50), MDCK. The method, then: as §1, §2
The test system of test [6] is PC3 cell line (prostate cancer). Kind of test: MTT cell viability assay, PC3. The conditions noted are these: Homo sapiens, PC-3, 48 hours, read-out: half maximal inhibitory concentration (IC50), PC3. Here is the method:
as §1, §2

The subject of test [7] is MDA-MB-231 cell line (breast cancer). As to the kind of experiment: MTT cell viability assay, MDA-MB-231. The conditions noted are these: Homo sapiens; MDA-MB-231, MTT, 48 hours; read-out: half maximal inhibitory concentration (IC50), MDA-MB-231. The method, then: as §1, §2
Test [8] has as its system MCF-7 cell line (breast cancer). Kind of test: MTT cell viability assay, MCF-7. The settings on record: Homo sapiens, MCF7; MCF-7, MTT, 48 hours; read-out: half maximal inhibitory concentration (IC50), MCF-7. The method, then:
as §1, §2

≈ marks a conversion by molar mass, not a printed value.

As for `C[S+](C)[O-]` [DMSO], in the test on various tumor cells (DMSO content of the diluted drug, cell line not stated), the “IC50 value of the solvent (50% cell death)” value was determined as 2.34%.

With `COC1=C(OC)[C@H](O)[C@H](C/C=C(\C)CC/C=C(\C)CC(O)C=C(C)C)[C@@H](C)C1=O` (stereo partly shown) [Antrocamol LT1, 4-hydroxy-5-[9-hydroxy-3,7,11-trimethyldodeca-2,6,10-trienyl]-2,3-dimethoxy-6-methyl-cyclohex-2-enone], the IC50 in test [1] was 0.093 ± 0.003 µg/mL (≈ 0.229 µM); in test [2] it was 0.07 ± 0.006 µg/mL (≈ 0.172 µM); in [3], 0.057 ± 0.009 µg/mL (≈ 0.14 µM); in test [4], 0.014 ± 0.001 µg/mL (≈ 0.0344 µM); in test [5] it was greater than 10 µg/mL; in test [6] it was 0.057 ± 0.002 µg/mL (≈ 0.14 µM). Besides, the IC50 stood at 0.98 ± 0.05 µg/mL (≈ 2.41 µM) in test [7] and 0.99 ± 0.08 µg/mL (≈ 2.44 µM) in test [8]. In the test on various tumor cells, the “anti cancer activity, in words” value is given as “predominant anti cancer activity”.

Take `COC1=C(OC)[C@H](OC(C)=O)[C@H](C/C=C(\C)CC/C=C(\C)CC(O)C=C(C)C)[C@@H](C)C1=O` (stereo partly shown) [Antrocamol LT2, 4-acetoxy-5-[9-hydroxy-3,7,11-trimethyldodeca-2,6,10-trienyl]-2,3-dimethoxy-6-methyl-cyclohex-2-enone]: the IC50 is 1.06 ± 0.22 µg/mL (≈ 2.36 µM) in test [1]; 0.8 ± 0.03 µg/mL (≈ 1.78 µM) in test [2]; 0.91 ± 0.08 µg/mL (≈ 2.03 µM) in test [3]; 0.59 ± 0.02 µg/mL (≈ 1.32 µM) in test [4]; greater than 10 µg/mL in test [5]; 0.69 ± 0.06 µg/mL (≈ 1.54 µM) in [6]. Further, the figures for the IC50 in test [7] and in test [8] were 1.03 ± 0.05 µg/mL (≈ 2.3 µM) and 0.95 ± 0.11 µg/mL (≈ 2.12 µM), respectively. Also, the “anti cancer activity, in words” value with various tumor cells is listed as “predominant anti cancer activity”.

For the origin of these results see patent US9622990B2, “Method for inhibiting cancer cell growth” (priority 2013, dated 2017).
